Experimental data from the NIST ThermoML archive (doi:10.1016/j.jct.2016.03.030).
Numbers after ± are expanded uncertainties.

Experiment: xn = mol fraction of the nth substance listed
Conditions: 100 kPa, Liquid; for viscosity: Falling or rolling sphere viscometry; for mass density: Vibrating tube method

CCCCC[N+]1(C)CCOCC1.[Br-] [4-methyl-4-pentylmorpholinium bromide] + O
Conditions	mass density [kg/m3]	viscosity [mPa·s]
298.15 K, x1 = 0.0316	1072.8 ± 1.1	1.957 ± 0.2
298.15 K, x1 = 0.0695	1127.6 ± 1	4.131 ± 0.41
298.15 K, x1 = 0.0965	1153.8 ± 1	6.746 ± 0.68
298.15 K, x1 = 0.1196	1170 ± 1	9.795 ± 0.98
298.15 K, x1 = 0.1522	1187.7 ± 1.1	16.25 ± 1.6
298.15 K, x1 = 0.2054	1208.2 ± 1.1	36.11 ± 3.6
298.15 K, x1 = 0.219	1212.2 ± 1.2	44.38 ± 4.5
298.15 K, x1 = 0.2438	1218.9 ± 1.3	64.59 ± 6.5
298.15 K, x1 = 0.2754	1226 ± 1.4	103.9 ± 11
303.15 K, x1 = 0.0316	1070.5 ± 1.1	1.7 ± 0.17
303.15 K, x1 = 0.0695	1124.5 ± 1	3.505 ± 0.35
303.15 K, x1 = 0.0965	1150.6 ± 1	5.63 ± 0.56
303.15 K, x1 = 0.1196	1166.6 ± 1	8.076 ± 0.81
303.15 K, x1 = 0.1522	1184.4 ± 1.1	13.14 ± 1.3
303.15 K, x1 = 0.2054	1204.9 ± 1.1	28.07 ± 2.8
303.15 K, x1 = 0.219	1208.8 ± 1.2	34.04 ± 3.4
303.15 K, x1 = 0.2438	1215.6 ± 1.2	48.66 ± 4.9
303.15 K, x1 = 0.2754	1222.7 ± 1.4	76.46 ± 7.7
308.15 K, x1 = 0.0316	1067.9 ± 1.1	1.484 ± 0.15
308.15 K, x1 = 0.0695	1121.3 ± 1	2.997 ± 0.3
308.15 K, x1 = 0.0965	1147.2 ± 1	4.74 ± 0.48
308.15 K, x1 = 0.1196	1163.3 ± 1	6.709 ± 0.67
308.15 K, x1 = 0.1522	1181 ± 1.1	10.79 ± 1.1
308.15 K, x1 = 0.2054	1201.5 ± 1.1	22.24 ± 2.2
308.15 K, x1 = 0.219	1205.5 ± 1.2	26.62 ± 2.7
308.15 K, x1 = 0.2438	1212.2 ± 1.2	37.45 ± 3.8
308.15 K, x1 = 0.2754	1219.4 ± 1.4	57.57 ± 5.8
313.15 K, x1 = 0.0316	1065.3 ± 1.1	1.309 ± 0.13
313.15 K, x1 = 0.0695	1118.1 ± 1	2.586 ± 0.26
313.15 K, x1 = 0.0965	1143.9 ± 1	4.035 ± 0.4
313.15 K, x1 = 0.1196	1159.8 ± 1	5.642 ± 0.57
313.15 K, x1 = 0.1522	1177.5 ± 1.1	8.994 ± 0.9
313.15 K, x1 = 0.2054	1198.1 ± 1.1	17.82 ± 1.8
313.15 K, x1 = 0.219	1202.1 ± 1.2	21.2 ± 2.1
313.15 K, x1 = 0.2438	1208.9 ± 1.2	29.17 ± 2.9
313.15 K, x1 = 0.2754	1216.1 ± 1.4	44.03 ± 4.4
318.15 K, x1 = 0.0316	1062.6 ± 1.1	1.159 ± 0.12
318.15 K, x1 = 0.0695	1114.9 ± 1	2.252 ± 0.23
318.15 K, x1 = 0.0965	1140.5 ± 1	3.465 ± 0.35
318.15 K, x1 = 0.1196	1156.4 ± 1	4.796 ± 0.48
318.15 K, x1 = 0.1522	1174.1 ± 1.1	7.569 ± 0.76
318.15 K, x1 = 0.2054	1194.7 ± 1.1	14.56 ± 1.5
318.15 K, x1 = 0.219	1198.7 ± 1.2	17.13 ± 1.7
318.15 K, x1 = 0.2438	1205.5 ± 1.2	23.22 ± 2.3
318.15 K, x1 = 0.2754	1212.7 ± 1.4	34.22 ± 3.4
323.15 K, x1 = 0.0316	1059.7 ± 1.1	1.023 ± 0.1
323.15 K, x1 = 0.0695	1111.5 ± 1	1.95 ± 0.2
323.15 K, x1 = 0.0965	1137 ± 1	2.963 ± 0.3
323.15 K, x1 = 0.1196	1152.9 ± 1	4.065 ± 0.41
323.15 K, x1 = 0.1522	1170.6 ± 1.1	6.349 ± 0.64
323.15 K, x1 = 0.2054	1191.3 ± 1.1	11.9 ± 1.2
323.15 K, x1 = 0.219	1195.4 ± 1.2	13.89 ± 1.4
323.15 K, x1 = 0.2438	1202.2 ± 1.2	18.52 ± 1.9
323.15 K, x1 = 0.2754	1209.4 ± 1.3	26.85 ± 2.7
328.15 K, x1 = 0.0316	1056.6 ± 1.1	0.908 ± 0.091
328.15 K, x1 = 0.0695	1108.1 ± 1	1.703 ± 0.17
328.15 K, x1 = 0.0965	1133.5 ± 1	2.557 ± 0.26
328.15 K, x1 = 0.1196	1149.4 ± 1	3.475 ± 0.35
328.15 K, x1 = 0.1522	1167.1 ± 1.1	5.382 ± 0.54
328.15 K, x1 = 0.2054	1187.9 ± 1.1	9.86 ± 0.99
328.15 K, x1 = 0.219	1191.9 ± 1.2	11.44 ± 1.1
328.15 K, x1 = 0.2438	1198.8 ± 1.2	15.02 ± 1.5
328.15 K, x1 = 0.2754	1206.1 ± 1.3	21.35 ± 2.1
333.15 K, x1 = 0.0316	1053.5 ± 1.1	0.817 ± 0.082
333.15 K, x1 = 0.0695	1104.7 ± 1	1.504 ± 0.15
333.15 K, x1 = 0.0965	1130 ± 1	2.234 ± 0.22
333.15 K, x1 = 0.1196	1145.9 ± 1	3.003 ± 0.3
333.15 K, x1 = 0.1522	1163.6 ± 1.1	4.616 ± 0.46
333.15 K, x1 = 0.2054	1184.4 ± 1.1	8.297 ± 0.83
333.15 K, x1 = 0.219	1188.5 ± 1.2	9.561 ± 0.96
333.15 K, x1 = 0.2438	1195.4 ± 1.2	12.38 ± 1.2
333.15 K, x1 = 0.2754	1202.7 ± 1.3	17.33 ± 1.7
338.15 K, x1 = 0.0316	1050.5 ± 1.1	0.74 ± 0.074
338.15 K, x1 = 0.0695	1101.2 ± 1	1.374 ± 0.14
338.15 K, x1 = 0.0965	1126.5 ± 1	1.965 ± 0.2
338.15 K, x1 = 0.1196	1142.3 ± 1	2.724 ± 0.27
338.15 K, x1 = 0.1522	1160.1 ± 1.1	3.961 ± 0.4
338.15 K, x1 = 0.2054	1180.9 ± 1.1	7.055 ± 0.71
338.15 K, x1 = 0.219	1185.1 ± 1.2	8.079 ± 0.81
338.15 K, x1 = 0.2438	1192 ± 1.2	10.39 ± 1
338.15 K, x1 = 0.2754	1199.3 ± 1.3	14.54 ± 1.5
343.15 K, x1 = 0.0316	1047.2 ± 1.1	0.677 ± 0.068
343.15 K, x1 = 0.0695	1097.8 ± 1	1.288 ± 0.13
343.15 K, x1 = 0.0965	1122.9 ± 1	1.733 ± 0.17
343.15 K, x1 = 0.1196	1138.7 ± 1	2.554 ± 0.26
343.15 K, x1 = 0.1522	1156.5 ± 1.1	3.412 ± 0.34
343.15 K, x1 = 0.2054	1177.5 ± 1.1	6.064 ± 0.61
343.15 K, x1 = 0.219	1181.6 ± 1.2	7.061 ± 0.71
343.15 K, x1 = 0.2438	1188.5 ± 1.2	8.615 ± 0.87
343.15 K, x1 = 0.2754	1196 ± 1.3	12.93 ± 1.3
